Series [1] in a line: Oral PK of 15u and 15u_D6, female CD-1 mice. The settings on record: 30 mg/kg, AUC within the first eight hours.
A short description of the next series: in vivo. The settings on record: female, CD-1, mouse, serum, po, 30 mg/kg.
In a further series the test system is FLT3(ITD, D835V). In words: KINOMEscan scanMAX. Type of series: binding. As to conditions: 2000 nM. The text has this: (§1) Nat. Biotechnol. 23, 329-336 (2005).
(§2) Percent Control (% Ctrl).
(§3) % Ctrl=100×(TS−CPOS)/(CNEG−CPOS) (eqn 1)

In a further series the target is T1, PRP4 (Homo sapiens, UniProt Q13523).
T1 construct: DNA label (qPCR read-out); purchased DiscoverX (KINOMEscan)
T1 sequence (Q13523 whole entry): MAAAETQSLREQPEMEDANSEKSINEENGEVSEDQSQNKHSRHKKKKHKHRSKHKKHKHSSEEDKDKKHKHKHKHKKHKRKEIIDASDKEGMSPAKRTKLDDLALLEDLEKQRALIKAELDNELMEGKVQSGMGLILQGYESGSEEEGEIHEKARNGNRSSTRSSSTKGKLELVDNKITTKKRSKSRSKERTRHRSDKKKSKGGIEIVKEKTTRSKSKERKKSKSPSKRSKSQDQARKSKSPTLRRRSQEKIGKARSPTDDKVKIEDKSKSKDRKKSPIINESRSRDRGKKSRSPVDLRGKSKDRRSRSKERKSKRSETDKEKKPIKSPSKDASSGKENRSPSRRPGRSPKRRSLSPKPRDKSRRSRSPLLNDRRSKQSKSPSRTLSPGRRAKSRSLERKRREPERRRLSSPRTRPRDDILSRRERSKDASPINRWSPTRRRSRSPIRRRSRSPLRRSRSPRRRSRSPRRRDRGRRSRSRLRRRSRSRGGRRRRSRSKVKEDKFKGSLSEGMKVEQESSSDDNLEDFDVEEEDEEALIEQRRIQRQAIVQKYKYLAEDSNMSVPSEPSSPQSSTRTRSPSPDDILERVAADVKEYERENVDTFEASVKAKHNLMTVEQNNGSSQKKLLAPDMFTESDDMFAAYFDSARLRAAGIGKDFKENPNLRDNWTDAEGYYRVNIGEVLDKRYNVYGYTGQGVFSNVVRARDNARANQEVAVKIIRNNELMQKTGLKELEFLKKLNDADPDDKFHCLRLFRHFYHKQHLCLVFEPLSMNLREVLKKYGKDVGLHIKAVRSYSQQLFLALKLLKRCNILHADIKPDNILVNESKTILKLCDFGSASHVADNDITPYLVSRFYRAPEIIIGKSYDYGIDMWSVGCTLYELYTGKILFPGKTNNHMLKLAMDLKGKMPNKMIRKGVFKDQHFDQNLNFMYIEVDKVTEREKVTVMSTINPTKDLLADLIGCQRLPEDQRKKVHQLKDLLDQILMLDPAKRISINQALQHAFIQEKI
In words: KINOMEscan scanMAX. It counts as binding. The settings on record: PRP4, 2000 nM.
Description: as §1, §2, §3

Another series concerns the target T2, PFCDPK1(P. falciparum) (Plasmodium falciparum, UniProt P62344).
T2 construct: DNA label (qPCR read-out); purchased DiscoveRx (KINOMEscan scanMAX)
In words: KINOMEscan scanMAX. Type of series: binding. As to conditions: 2000 nM.
Description: as §1, §2, §3

The target in the next series is T3, PFPK5(P. falciparum) (Plasmodium falciparum, UniProt P61075).
T3 construct: purchased KINOMEscan (DiscoveRx) scanMAX panel
T3 sequence (P61075 whole entry): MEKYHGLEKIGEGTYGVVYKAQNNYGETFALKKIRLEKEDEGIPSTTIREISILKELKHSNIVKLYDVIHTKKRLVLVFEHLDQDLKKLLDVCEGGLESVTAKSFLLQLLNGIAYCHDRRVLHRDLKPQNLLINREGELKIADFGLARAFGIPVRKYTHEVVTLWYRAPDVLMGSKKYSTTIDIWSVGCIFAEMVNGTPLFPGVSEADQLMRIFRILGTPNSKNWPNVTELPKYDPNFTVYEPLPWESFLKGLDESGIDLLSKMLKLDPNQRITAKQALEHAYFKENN
In words: KINOMEscan scanMAX. Type of series: binding. The settings on record: 2000 nM.
Description: as §1, §2, §3

Another series has as its system FLT3(ITD). In words: KINOMEscan scanMAX. It counts as binding. The settings on record: 2000 nM.
Description: as §1, §2, §3

The next series addresses T4, CDC2L5 (Homo sapiens, UniProt Q14004).
T4 construct: purchased DiscoverX (KINOMEscan scanMAX service)
In words: KINOMEscan scanMAX. As to conditions: CDC2L5, 2000 nM. It counts as binding.
Description: as §1, §2, §3

For a further series, the target named is T5, PKNB(M. tuberculosis) (Mycobacterium tuberculosis, UniProt P9WI81).
T5 construct: purchased DiscoveRx (KINOMEscan scanMAX panel)
T5 sequence (P9WI81 whole entry): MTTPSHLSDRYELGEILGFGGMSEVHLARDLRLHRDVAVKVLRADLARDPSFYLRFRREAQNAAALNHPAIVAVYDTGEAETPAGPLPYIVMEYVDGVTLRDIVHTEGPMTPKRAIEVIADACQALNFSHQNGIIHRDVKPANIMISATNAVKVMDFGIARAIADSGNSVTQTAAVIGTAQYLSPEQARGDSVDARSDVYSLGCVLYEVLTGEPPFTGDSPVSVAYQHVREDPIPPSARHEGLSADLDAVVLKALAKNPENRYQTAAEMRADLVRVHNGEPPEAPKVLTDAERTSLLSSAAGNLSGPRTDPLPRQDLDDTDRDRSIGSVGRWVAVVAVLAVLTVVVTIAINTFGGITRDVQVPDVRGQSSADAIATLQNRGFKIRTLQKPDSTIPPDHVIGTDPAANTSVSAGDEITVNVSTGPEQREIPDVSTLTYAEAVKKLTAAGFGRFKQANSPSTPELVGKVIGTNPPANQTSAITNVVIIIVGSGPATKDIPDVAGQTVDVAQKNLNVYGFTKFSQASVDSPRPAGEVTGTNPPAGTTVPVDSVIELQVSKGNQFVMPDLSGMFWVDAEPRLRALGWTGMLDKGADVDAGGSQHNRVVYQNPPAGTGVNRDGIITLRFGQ
The series is described as follows: KINOMEscan scanMAX. Type of series: binding. As to conditions: 2000 nM.
Description: as §1, §2, §3

For the next series, the system named is FLT3(ITD, F691L). The series is described as follows: KINOMEscan scanMAX. The settings on record: 2000 nM. It counts as binding.
Description: as §1, §2, §3

Another series has as its system CDK8/19. In words: NFκB reporter assay in parental 293 reporter cells. It counts as cell-based. The settings on record: NFκB Activity Assay as described in Example 1; read-out: Inhibition Potency HEK293-NFkB-Luc Assay. From the text: We have used a cell-based assay to measure the inhibition of CDK8/19 activity by thienopyridine derivatives. This assay, based on the role of CDK8/19 in NFκB-driven transcription (Chen, 2017), measures the effects of CDK8/19 on the expression of firefly luciferase reporter from a NFκB-dependent promoter in 293 cells. Lentiviral vector pHAGE-NFKB-TA-LUC-UBC-dTomato-W (Addgene #49335) was introduced into 293 cells and a clonal cell line showing the strongest induction of luciferase expression upon TNFα treatment was established and used as the reporter cell line. As a control for CDK8/19 dependence of NFκB inhibition, we have also introduced the same reporter construct into 293 cells with CRISPR/CAS9 knockout of both CDK8 and CDK19.
FIG. 2C and Table 1 compares the IC50 values for different thienopyridines measured in the NFκB reporter assay in parental 293-derived reporter cell line to the cell-based activity values measured for the same compounds by Saito (2013) based on their effect on alkaline phosphatase (ALPase), an indicator of differentiation to osteoblasts in the mouse bone marrow stromal cell line ST2. The latter effects are expressed as EC200, a concentration that enhances ALPase activity to 200% of control.
On the technique in general: In a reporter assay the amount or activity of a reporter protein is the signal.

The subject of series [2] is MYC-CAP-CR cells. The series is described as follows: Long-term clonogenic assay, MYC-CaP-CR. It counts as cell-based, murine. The settings on record: 1 μM Senexin B, 1 μM 15u, 5 μM enzalutamide. From the text:
(§4) MYC-CaP-CR cells (Ellis L. et al., 2012. Prostate 72(6):587-591) were selected for castration resistance from genetically engineered MYC-CaP cells that express MYC from an AR-responsive promoter (Watson P A, et al., 2005. Cancer Res 65(24):11565-11571). Castration resistance in these cells is associated with the overexpression of full-length AR rather than an AR variant, such as AR-V7 in 22rv1 (Olson B M, et al., 2017. Cancer immunology research 5(12):1074-1085).

For series [3], the system named is MYC-CAP-CR cells. The series is described as follows: Short-term cell proliferation assay, MYC-CAP-CR. Type of series: cell-based, murine. The settings on record: androgen-containing media.
Description: as §4

The next series relates to MYC-CaP-CR tumors. The series is described as follows: MYC-CaP-CR tumors subcutaneous in intact FVB male mice. It counts as in vivo, mouse.
Description: as §4

Series [4] relates to PSA expression in CRPC cell line C4-2. The series is described as follows: PSA expression in cell culture supernatant of C4-2 cells. As to conditions: C4-2 culture supernatant, 4-day treatment, FBS-supplemented regular media. Type of series: cell-based. The text has this: CDK8/19 inhibition decreases the expression of certain androgen-receptor (AR) inducible genes including PSA, the most common marker of prostate cancer, and the growth of castration-refractory prostate cancers (CRPC).

The test system of series [5] is 4T1 murine TNBC lung metastasis. The series is described as follows: 4T1 breast cancer metastasis survival after primary tumor removal. Type of series: in vivo, mouse. As to conditions: Senexin B medicated food (350 ppm) plus one oral dose 50 mg/kg. As to the method:
4T1 is a murine triple-negative breast cancer (TNBC) cell line, which is highly metastatic to the lungs. […] Parental and CDK8-knockdown 4T1 cells (n=10) were injected orthotopically in the mammary fat pad and the primary tumors were removed 17 days later. Following surgery, all the mice eventually died with lung metastases. […] However, the loss of CDK8 was associated with a strong increase in the survival of mice (FIG. 10C). […]

Series [6] concerns CRPC cell line 22rv1 xenograft. As to conditions: Senexin B 133 mg/kg once a day or 66 mg/kg twice a day (FIG. 8D).

From US20220226343A1, “3-AMINO-4-[4-[4 (DIMETHYLCARBAMOYL) PHENYL]-1,4-DIAZEPAN-1-YL]THIENO[2,3-B]PYRIDINE-2-CARBOXAMIDE FOR USE IN CANCER THERAPY AND FORMULATIONS COMPRISING THE SAME” (University of South Carolina, priority 2019, published 2022) come the findings set out here.

By AUC(0-t) is commonly meant the area under the concentration-time curve up to a stated or last time point.

T2 sequence (P62344 whole entry): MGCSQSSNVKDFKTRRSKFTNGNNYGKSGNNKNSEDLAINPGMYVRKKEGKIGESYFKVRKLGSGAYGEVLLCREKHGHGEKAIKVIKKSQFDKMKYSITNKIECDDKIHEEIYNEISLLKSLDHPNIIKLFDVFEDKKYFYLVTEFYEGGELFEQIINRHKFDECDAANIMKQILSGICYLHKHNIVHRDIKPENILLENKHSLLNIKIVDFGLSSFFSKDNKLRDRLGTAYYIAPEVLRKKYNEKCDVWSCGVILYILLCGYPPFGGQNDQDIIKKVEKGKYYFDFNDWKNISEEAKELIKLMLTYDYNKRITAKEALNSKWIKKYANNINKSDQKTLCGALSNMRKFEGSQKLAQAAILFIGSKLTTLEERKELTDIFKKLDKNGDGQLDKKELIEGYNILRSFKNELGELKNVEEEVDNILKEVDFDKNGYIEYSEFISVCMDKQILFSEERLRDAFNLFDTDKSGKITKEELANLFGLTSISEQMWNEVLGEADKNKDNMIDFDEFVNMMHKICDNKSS
T4 sequence (Q14004 whole entry): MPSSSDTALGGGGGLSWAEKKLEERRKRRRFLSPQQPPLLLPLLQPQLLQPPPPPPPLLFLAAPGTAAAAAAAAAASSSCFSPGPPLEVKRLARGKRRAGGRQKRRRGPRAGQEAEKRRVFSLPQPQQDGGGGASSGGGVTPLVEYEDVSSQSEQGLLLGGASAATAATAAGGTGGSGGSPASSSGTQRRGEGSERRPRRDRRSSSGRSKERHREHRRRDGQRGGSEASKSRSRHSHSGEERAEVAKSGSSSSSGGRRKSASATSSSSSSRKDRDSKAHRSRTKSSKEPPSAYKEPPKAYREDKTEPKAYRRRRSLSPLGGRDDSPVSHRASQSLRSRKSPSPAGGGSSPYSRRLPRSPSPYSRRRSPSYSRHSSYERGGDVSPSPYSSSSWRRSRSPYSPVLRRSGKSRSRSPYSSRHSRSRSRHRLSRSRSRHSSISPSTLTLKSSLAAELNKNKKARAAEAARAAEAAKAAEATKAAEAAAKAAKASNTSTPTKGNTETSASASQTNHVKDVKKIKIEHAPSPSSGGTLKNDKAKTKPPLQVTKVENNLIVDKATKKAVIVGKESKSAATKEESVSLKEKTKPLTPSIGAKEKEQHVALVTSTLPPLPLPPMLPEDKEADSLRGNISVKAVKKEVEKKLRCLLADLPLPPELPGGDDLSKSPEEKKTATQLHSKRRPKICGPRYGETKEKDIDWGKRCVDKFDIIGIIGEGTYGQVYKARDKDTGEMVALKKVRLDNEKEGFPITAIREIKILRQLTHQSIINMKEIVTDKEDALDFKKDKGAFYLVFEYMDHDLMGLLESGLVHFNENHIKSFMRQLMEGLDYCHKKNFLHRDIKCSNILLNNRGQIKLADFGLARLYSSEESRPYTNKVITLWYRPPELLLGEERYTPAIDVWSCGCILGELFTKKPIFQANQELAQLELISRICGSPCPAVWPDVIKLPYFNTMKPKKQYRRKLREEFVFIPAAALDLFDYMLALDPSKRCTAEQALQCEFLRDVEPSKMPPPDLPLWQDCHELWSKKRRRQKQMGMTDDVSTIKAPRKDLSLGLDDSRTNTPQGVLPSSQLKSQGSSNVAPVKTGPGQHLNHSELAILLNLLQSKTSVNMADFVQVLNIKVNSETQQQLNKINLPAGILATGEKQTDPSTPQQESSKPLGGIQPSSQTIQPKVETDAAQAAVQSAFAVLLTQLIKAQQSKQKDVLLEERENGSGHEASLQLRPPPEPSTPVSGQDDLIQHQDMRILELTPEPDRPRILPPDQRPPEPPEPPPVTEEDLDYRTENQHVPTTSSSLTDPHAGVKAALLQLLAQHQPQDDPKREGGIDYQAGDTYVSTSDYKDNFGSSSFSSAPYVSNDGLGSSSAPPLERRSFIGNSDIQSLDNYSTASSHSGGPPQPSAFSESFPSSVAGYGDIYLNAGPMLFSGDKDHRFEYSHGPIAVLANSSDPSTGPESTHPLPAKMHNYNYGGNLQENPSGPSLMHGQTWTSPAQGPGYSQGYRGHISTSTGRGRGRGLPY

`[2H]C([2H])([2H])N(C(=O)c1ccc(N2CCCN(c3ccnc4sc(C(N)=O)c(N)c34)CC2)cc1)C([2H])([2H])[2H]` [Compound 15u_D6, 3-amino-4-(4-(4-(bis(methyl-d3)carbamoyl)phenyl)-1,4-diazepan-1-yl)thieno[2,3-b]pyridine-2-carboxamide]: the “PK of the D6 derivative compared with 15u” value in series [1] was “slightly improved the PK”. The same compound came in with an area under the curve AUC(0-t) in “in vivo” of 7400 ng·h/mL. Besides, the “% Ctrl” value with FLT3(ITD, D835V) is given as 34 % Ctrl; at PRP4, 88 % Ctrl; at PFCDPK1(P. falciparum) it was 61 % Ctrl; at PFPK5(P. falciparum), 67 % Ctrl; with FLT3(ITD), 72 % Ctrl; at CDC2L5, 80 % Ctrl. In addition, the “% Ctrl” value at PKNB(M. tuberculosis) is given as 90 % Ctrl; with FLT3(ITD, F691L) it was 75 % Ctrl. For the same compound, the IC50 in the series with CDK8/19 was found to be 7.7 nM.
Consider `CNC(=O)c1ccc(N2C(=S)N(c3ccc(C#N)c(C(F)(F)F)c3)C(=O)C2(C)C)cc1F` [enzalutamide], for which, in the series with MYC-CAP-CR cells [2], the MYC-CaP-CR colony formation entry is given as “decreased MYC-CaP-CR colony formation”. For the same compound, the MYC-CAP-CR cell growth result with MYC-CAP-CR cells [3] is listed as “paradoxically stimulated the growth”. The “MYC-CaP-CR tumor volume and weight” value with MYC-CaP-CR tumors is recorded as “modest effect”.
For the compound `CN1CCN(C(=O)c2ccc3cc(CCNc4ncnc5ccc(C#N)cc45)ccc3c2)CC1` [Senexin B, reference compound], the MYC-CaP-CR colony formation entry in the series with MYC-CAP-CR cells [2] is “decreased MYC-CaP-CR colony formation”. The compound further gave an IC50 in series [4] of 255 nM. Besides, the “survival after removal of the primary 4T1 tumor” value in [5] is “statistically significant but moderate increase in survival”. Also, in the series on MYC-CAP-CR cells [3], the MYC-CAP-CR cell growth result is given as “little effect”. Further, the “22rv1 growth in castrated mice” value in [6] is “significantly inhibited 22rv1 growth”.
